# Measurements: patent publication US9656962B2, “Ring-contracted morphinans and the use thereof” (Purdue Pharma L.P., priority 2013, dated 2017)
# Legend:
# Format in all cases: biochemical
# μ-opioid receptor [1] = target: T1, μ-opioid receptor (Homo sapiens (Human), UniProt P35372); test: μ-opioid receptor [35S]GTPγS functional assay, HEK-293 or CHO cells (Table 4); conditions: for Emax: relative to DAMGO; for EC50: μ GTP
# Method: μ-Opioid Receptor Functional Assay Procedures: [^35S]GTPγS functional assays were conducted using freshly thawed μ-receptor membranes prepared in-house from a cell line expressing recombinant μ opioid receptor in a HEK-293, CHO or U-2 OS cell background, or purchased from a commercial source (Perkin Elmer, Shelton, Conn.; or DiscovRx, Fremont, Calif.). Assay reactions were prepared by sequentially adding the following reagents to binding buffer (100 mM NaCl, 10 mM MgCl2, 20 mM HEPES, pH 7.4) on ice (final concentrations indicated): membrane protein (0.026 mg/mL), saponin ([…]), GDP ([…]) and [^35S]GTPγS (0.20 nM; Perkin Elmer, Shelton, Conn.). The prepared membrane solution (190 μl/well) was transferred to 96-shallow well polypropylene plates containing 10 μl of 20× concentrated stock solutions of the agonist [D-Ala^2, N-methyl-Phe^4 Gly-ol^5]-enkephalin (DAMGO) prepared in dimethyl sulfoxide (DMSO). Plates were incubated for 30 min at about 25° C. with shaking Reactions were terminated by rapid filtration onto 96-well Unifilter GF/B filter plates (Perkin Elmer, Shelton, Conn.) using a 96-well tissue harvester (Perkin Elmer, Shelton, Conn.) followed by three filtration washes with 200 μl of ice-cold wash buffer (10 mM NaH2PO4, 10 mM Na2HPO4, pH 7.4). Filter plates were subsequently dried at 50° C. for 2-3 hours. BetaScint scintillation cocktail (Perkin Elmer, Shelton, Conn.) was added (50 μl/well) and plates were counted using a Packard Top-Count for 1 min/well. Data were analyzed using the sigmoidal dose-response curve fitting functions in GraphPad PRISM v. 3.0, or an in-house function for non-linear, sigmoidal dose-response curve-fitting. [^35S]GTPγS functional assays can also be conducted using freshly thawed μ-receptor membranes prepared from a cell line expressing recombinant μ opioid receptor in a CHO-K1 cell background.
# μ GTP Emax (%) is the maximal effect elicited by a compound relative to the effect elicited by DAMGO, a standard μ agonist.
# In TABLE 4, activity response of certain Compounds of the Invention to the μ- and κ-opioid receptors was determined as described above for functional assays using HEK-293 or CHO cells.
# μ-opioid receptor [2] = target: T1, μ-opioid receptor; test: μ-opioid receptor [35S]GTPγS functional assay, U-2 OS cells (Table 5); conditions: for Emax: relative to DAMGO; for EC50: μ GTP
# In short: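 Membranes (0.026 mg/mL) from cells expressing recombinant human μ-opioid receptor in a U-2 OS background were incubated with 0.20 nM [35S]GTPγS, 3 mM GDP and saponin in 20 mM HEPES pH 7.4, 100 mM NaCl, 10 mM MgCl2 for 30 min at about 25 °C. Filter-bound radioactivity counted; sigmoidal dose-response fits gave values, Emax relative to DAMGO.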
# κ-opioid receptor = κ-opioid receptor (Homo sapiens (Human), UniProt P41145); test: κ-opioid receptor [35S]GTPγS functional assay, U-2 OS cells (Table 5); conditions: for Emax: relative to U69,593; for EC50: κ GTP
# In short: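 [35S]GTPγS binding in κ receptor membranes (0.026 μg/μl protein) with 10 μg/mL saponin, 3 μM GDP and 0.20 nM [35S]GTPγS in pH 7.4 HEPES/NaCl/MgCl2 buffer. Agonist incubation lasted 30 min at about 25 °C, followed by filtration and scintillation counting. Emax is expressed relative to U69,593.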
Structure (SMILES),Emax (μ-opioid receptor [1]) [%],EC50 (μ-opioid receptor [1]) [µM],Emax (μ-opioid receptor [2]) [%],EC50 (μ-opioid receptor [2]) [nM],Emax (κ-opioid receptor) [%],EC50 (κ-opioid receptor) [nM],EC50 (μ-opioid receptor [1]; bound given in μM) [µM]
"O=C(NCCc1ccccc1)[C@H]1C[C@]23CCN(CC4CC4)[C@H](Cc4ccc(O)cc42)[C@]3(O)C1 [Compound 51, (2S,3aS,4R,9bS)-12-(cyclopropylmethyl)-3a,8-dihydroxy-N-phenethyl-1,2,3,3a,4,5-hexahydro-4,9b-(epiminoethano)cyclo-penta[a]naphthalene-2-carboxamide]",43 ± 3.06,0.00049 ± 4e-05,87.7 ± 1.2,0.13 ± 0.015,102 ± 2.31,0.047,–
"O=C(NCc1ccc(Cl)cc1Cl)[C@H]1C[C@]23CCN(CC4CC4)[C@H](Cc4ccc(O)cc42)[C@]3(O)C1 [Compound 45, (2S,3aS,4R,9bS)-12-(cyclopropylmethyl)-N-(2,4-dichlorobenzyl)-3a,8-dihydroxy-1,2,3,3a,4,5-hexahydro-4,9b-(epimino-ethano)cyclopenta[a]naphthalene-2-carboxamide]",43.3 ± 4.84,0.00038 ± 4.4e-05,87 ± 0.58,0.14 ± 0.018,100 ± 4.62,0.018,–
"O=C(NCc1cc(F)cc(F)c1)[C@@H]1C[C@]23CCN(CC4CC4)[C@H](Cc4ccc(O)cc42)[C@]3(O)C1 [Compound 49, (2R,3aS,4R,9bS)-12-(cyclopropylmethyl)-N-(3,5-difluorobenzyl)-3a,8-dihydroxy-1,2,3,3a,4,5-hexahydro-4,9b-(epimino-ethano)cyclopenta[a]naphthalene-2-carboxamide]",10.5 ± 0.29,0.00617 ± 0.00198,42.3 ± 1.45,3.73 ± 0.23,108 ± 4.7,0.82 ± 0.099,–
"Oc1ccc2c(c1)C13CCN(CC4CC4)[C@H](C2)[C@]1(O)C[C@H](N(Cc1ccccc1)Cc1ccccc1)C3 (stereo in doubt) [Compound 81, (2R,3aS,4R,9bS)-12-(cyclopropyl-methyl)-2-(dibenzylamino)-2,3,4,5-tetrahydro-4,9b-(epiminoethano)-cyclopenta-[a]naphthalene-3a,8(1H)-diol]",19 ± 1.53,–,–,–,–,–,> 20
"O=C(NCc1ccc(O)cc1)[C@@H]1C[C@]23CCN(CC4CC4)[C@H](Cc4ccc(O)cc42)[C@]3(O)C1 [Compound 39, (2R,3aS,4R,9bS)-12-(cyclopropylmethyl)-3a,8-dihydroxy-N-(4-hydroxybenzyl)-1,2,3,3a,4,5-hexahydro-4,9b-(epimino-ethano)cyclopenta[a]naphthalene-2-carboxamide]",15 ± 1.73,0.0375 ± 0.0126,42 ± 1,11.1 ± 0.28,91.7 ± 1.86,1.85 ± 0.097,–
"CN1CC[C@]23C[C@H](C(N)=O)C[C@@]2(O)[C@H]1Cc1ccc(O)cc13 [Compound 78, (2S,3aS,4R,9bS)-3a,8-dihydroxy-12-methyl-1,2,3,3a,4,5-hexahydro-4,9b-(epiminoethano)cyclopenta-[a]naphthalene-2-carboxamide]",27.4 ± 1.03,0.308 ± 0.093,94.7 ± 2.4,89.3 ± 14.6,89.7 ± 4.84,973 ± 136,–
"O=C(NCc1ccc(O)cc1)[C@H]1C[C@]23CCN(CC4CC4)[C@H](Cc4ccc(O)cc42)[C@]3(O)C1 [Compound 40, (2S,3aS,4R,9bS)-12-(cyclopropylmethyl)-3a,8-dihydroxy-N-(4-hydroxybenzyl)-1,2,3,3a,4,5-hexahydro-4,9b-(epiminoethano)cyclopenta[a]naphthalene-2-carboxamide]",1,–,29.3 ± 1.33,1.45 ± 0.068,97.7 ± 1.86,0.73 ± 0.07,> 20
"NC(=O)CNC(=O)[C@@H]1C[C@]23CCN(CC4CC4)[C@H](Cc4ccc(O)cc42)[C@]3(O)C1 [Compound 64, (2R,3aS,4R,9bS)-N-(2-amino-2-oxoethyl)-12-(cyclopropylmethyl)-3a,8-dihydroxy-1,2,3,3a,4,5-hexahydro-4,9b-(epiminoethano)cyclopenta[a]naphthalene-2-carboxamide]",3.5,–,48.7 ± 0.33,6.96 ± 0.27,101 ± 4.98,3.51 ± 0.16,> 20
"O=C(NCCCN1CCOCC1)[C@H]1C[C@]23CCN(CC4CC4)[C@H](Cc4ccc(O)cc42)[C@]3(O)C1 [Compound 91, (2S,3aS,4R,9bS)-12-(cyclopropylmethyl)-3a,8-dihydroxy-N-(3-morpholinopropyl)-1,2,3,3a,4,5-hexahydro-4,9b-(epimino-ethano)cyclopenta[a]naphthalene-2-carboxamide]",-1,–,–,–,–,–,> 20
"O=C(NCc1ccc(F)cc1)[C@@H]1C[C@]23CCN(CC4CC4)[C@H](Cc4ccc(O)cc42)[C@]3(O)C1 [Compound 48, (2R,3aS,4R,9bS)-12-(cyclopropylmethyl)-N-(4-fluorobenzyl)-3a,8-dihydroxy-1,2,3,3a,4,5-hexahydro-4,9b-(epimino-ethano)cyclopenta[a]naphthalene-2-carboxamide]",-1,–,40 ± 1.53,3.12 ± 0.27,106 ± 2.33,1.46 ± 0.29,> 20
"O=C(NCc1ccc(Cl)cc1)[C@@H]1C[C@]23CCN(CC4CC4)[C@H](Cc4ccc(O)cc42)[C@]3(O)C1 [Compound 43, (2R,3aS,4R,9bS)-N-(4-chlorobenzyl)-12-(cyclopropylmethyl)-3a,8-dihydroxy-1,2,3,3a,4,5-hexahydro-4,9b-(epimino-ethano)cyclopenta[a]naphthalene-2-carboxamide]",11 ± 0.82,0.00835 ± 0.0018,41.3 ± 2.03,4.55 ± 0.14,102 ± 5.9,0.67 ± 0.02,–
"CN1CC[C@]23C[C@@H](C(N)=O)C[C@@]2(O)[C@H]1Cc1ccc(O)cc13 [Compound 77, (2R,3aS,4R,9bS)-3a,8-dihydroxy-12-methyl-1,2,3,3a,4,5-hexahydro-4,9b-(epiminoethano)cyclopenta[a]naphthalene-2-carboxamide]",19.6 ± 5.65,0.58 ± 0.131,85 ± 2.52,389 ± 74,65.3 ± 6.44,1150 ± 221,–
"COc1ccc2c(c1)[C@]13CCN(CC4CC4)[C@H](C2)[C@]1(O)C[C@H](C#N)C3 [Compound 25, (2R,3aS,4R,9bS)-12-(cyclopropylmethyl)-3a-hydroxy-8-methoxy-1,2,3,3a,4,5-hexahydro-4,9b-(epiminoethano)-cyclopenta[a]naphthalene-2-carbonitrile]",12 ± 2.08,0.616 ± 0.0409,54.3 ± 4.1,228 ± 25.4,107 ± 4.16,234 ± 28.5,–
"O=C(NCc1cccnc1)[C@H]1C[C@]23CCN(CC4CC4)[C@H](Cc4ccc(O)cc42)[C@]3(O)C1 [Compound 92, (2S,3aS,4R,9bS)-12-(cyclopropylmethyl)-3a,8-dihydroxy-N-(pyridin-3-ylmethyl)-1,2,3,3a,4,5-hexahydro-4,9b-(epimino-ethano)cyclopenta[a]naphthalene-2-carboxamide]",-1,–,–,–,–,–,> 20
"O=C([C@@H]1C[C@]23CCN(CC4CC4)[C@H](Cc4ccc(O)cc42)[C@]3(O)C1)N1CCN(c2ccccc2)CC1 [Compound 86, ((2R,3aS,4R,9bS)-12-(cyclopropylmethyl)-3a,8-dihydroxy-1,2,3,3a,4,5-hexahydro-4,9b-(epiminoethano)cyclopenta-[a]naphthalen-2-yl)(4-phenylpiperazin-1-yl)methanone]",12.8 ± 0.63,0.0288 ± 0.0105,–,–,–,–,–
"O=C(Nc1ccccc1)N[C@@H]1CC23CCN(CC4CC4)[C@H](Cc4ccc(O)cc42)[C@]3(O)C1 (stereo in doubt) [Compound 83, 1-((2R,3aS,4R,9bS)-12-(cyclopropyl-methyl)-3a,8-dihydroxy-1,2,3,3a,4,5-hexahydro-4,9b-(epiminoethano)cyclo-penta[a]naphthalen-2-yl)-3-phenylurea]",0,–,–,–,–,–,> 20
